The results in this text go back to PMC9820167, “Design and Synthesis of Conformationally Flexible Scaffold as Bitopic Ligands for Potent D3-Selective Antagonists” (International Journal of Molecular Sciences, 2022).

Where only a bound is given, the exact number is not on record here.

The target of one assay is GABAA. Description: PDSP binding screen. The conditions noted are these: HCl salts.
The target in another assay is Histamine H1 (Homo sapiens, UniProt P35367). Description: PDSP binding screen.
Another assay addresses T1, Muscarinic M4 (Homo sapiens, UniProt P08173).
T1 sequence (P08173 1-479): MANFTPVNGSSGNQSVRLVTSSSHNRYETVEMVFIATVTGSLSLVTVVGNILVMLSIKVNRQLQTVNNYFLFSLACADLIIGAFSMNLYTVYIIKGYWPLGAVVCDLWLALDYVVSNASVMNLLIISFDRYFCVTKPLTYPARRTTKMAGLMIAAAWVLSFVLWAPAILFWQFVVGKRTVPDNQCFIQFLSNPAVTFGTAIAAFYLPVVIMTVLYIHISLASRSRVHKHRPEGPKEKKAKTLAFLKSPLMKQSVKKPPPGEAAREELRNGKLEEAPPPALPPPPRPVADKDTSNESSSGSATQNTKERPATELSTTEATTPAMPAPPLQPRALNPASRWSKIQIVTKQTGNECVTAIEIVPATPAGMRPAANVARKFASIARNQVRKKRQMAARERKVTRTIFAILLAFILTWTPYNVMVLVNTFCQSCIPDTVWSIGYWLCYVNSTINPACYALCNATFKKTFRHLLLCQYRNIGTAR
Description: PDSP binding screen. The conditions noted are these: for inhibition at 10 µM: read-out: Ki (nM) or % inhibition at 10 µM: M4.

The next assay addresses T2, Adrenergic alpha1A (Homo sapiens, UniProt P35348).
T2 sequence (P35348 1-466): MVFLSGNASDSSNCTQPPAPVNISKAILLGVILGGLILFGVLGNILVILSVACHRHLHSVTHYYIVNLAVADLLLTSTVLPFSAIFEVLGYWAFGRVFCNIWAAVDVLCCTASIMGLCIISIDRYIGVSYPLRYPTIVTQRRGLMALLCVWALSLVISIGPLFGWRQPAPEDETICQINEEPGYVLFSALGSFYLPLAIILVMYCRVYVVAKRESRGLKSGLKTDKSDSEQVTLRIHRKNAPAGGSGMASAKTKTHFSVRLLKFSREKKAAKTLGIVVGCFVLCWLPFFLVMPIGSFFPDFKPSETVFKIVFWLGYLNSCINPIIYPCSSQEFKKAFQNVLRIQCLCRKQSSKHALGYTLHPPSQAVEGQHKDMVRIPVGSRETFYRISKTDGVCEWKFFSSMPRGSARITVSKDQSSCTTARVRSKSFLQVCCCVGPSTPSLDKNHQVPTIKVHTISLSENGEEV
Description: PDSP binding screen. To be noted: for inhibition at 10 µM: read-out: Ki (nM) or % inhibition at 10 µM: alpha1A.

In a further assay the target is Serotonin 5-HT6 (Homo sapiens, UniProt P50406). Description: PDSP binding screen.
The next assay concerns the target T3, Muscarinic M5 (Homo sapiens, UniProt P08912).
T3 sequence (P08912 1-532): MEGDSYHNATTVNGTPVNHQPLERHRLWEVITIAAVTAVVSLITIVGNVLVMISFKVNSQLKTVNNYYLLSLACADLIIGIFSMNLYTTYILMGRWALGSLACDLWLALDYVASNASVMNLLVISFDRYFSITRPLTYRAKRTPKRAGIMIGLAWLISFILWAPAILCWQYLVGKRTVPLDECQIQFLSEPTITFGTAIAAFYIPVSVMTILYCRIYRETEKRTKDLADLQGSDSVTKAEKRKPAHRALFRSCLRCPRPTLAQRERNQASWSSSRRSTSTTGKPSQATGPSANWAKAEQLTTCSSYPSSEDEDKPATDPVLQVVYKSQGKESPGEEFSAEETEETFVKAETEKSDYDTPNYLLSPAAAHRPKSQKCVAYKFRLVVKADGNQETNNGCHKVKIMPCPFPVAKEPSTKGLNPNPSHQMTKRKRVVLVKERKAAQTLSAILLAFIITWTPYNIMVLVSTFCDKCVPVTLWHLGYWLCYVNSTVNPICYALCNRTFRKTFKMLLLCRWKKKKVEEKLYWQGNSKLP
Description: PDSP binding screen. The conditions noted are these: read-out: Ki (nM) or % inhibition at 10 µM: M5.

For another assay, the target named is Adrenergic beta3 (Homo sapiens, UniProt P13945). Description: PDSP binding screen.
The next assay deals with Dopamine D2 (Homo sapiens, UniProt P14416). Description: PDSP binding screen.
The target in the next assay is human D3 receptors (Homo sapiens, UniProt P35462). Description: β-arrestin recruitment assay (antagonist mode, competition with dopamine). It counts as cell-based. More on the design: expressed in transfected cells. The conditions noted are these: for Emax: percentage of the maximum inhibition of dopamine at EC80 concentration, read-out: Imax (% Control); for IC50: potency for D3 receptors, CHO-K1 cells, vs 30 nM (EC80) dopamine, mean ± SD, three experiments, read-out: IC50. Here is the method: Two different assays were used to evaluate the properties of the analogs described above. The receptor binding affinity was measured by radioligand binding assays using [^125I]IABN with D2 or D3 receptors highly expressed HEK293 cells. The functional activity of the analogs was determined using a β-arrestin recruitment assay. The assay was initially conducted in agonist binding mode to confirm that they function as antagonists at the D3 receptor. Once this efficacy was confirmed, the assay was conducted in antagonist mode to determine the ability of the antagonist to compete with dopamine at the D3 receptor. The results of the antagonist mode assay are reported as IC50 values.
CHO-K1 cells which were overexpressed human D3 receptors were cultured in assaycomplete^TM cell culture kit 107. Cells were seeded at a density of 25,000 cells per well of 96-well plate, and incubated at 5% CO2, 37 °C. Two days later, test compounds were dissolved in DMSO, and diluted with 11-point series in phosphate-buffered saline (PBS). Prepared compounds were added to the cells, and it was incubated for 30 min at 5% CO2, 37 °C. Then, cells were treated with 30 nM (EC80) of dopamine, and the plate was incubated another 90 min. PathHunter^TM detection reagent was added to each well, and then plate was incubated for 80 min at RT in the dark. The chemiluminescent signal was measured by PerkinElmer Enspire plate reader (PerkinElmer, Boston, MA). Data were analyzed by Prism followed by non-linear regression.

The target in the next assay is BZP Rat Brain Site. Description: PDSP binding screen. To be noted: HCl salts.
The target in assay [1] is Dopamine active transporter (DAT) (Homo sapiens, UniProt Q01959). Description: PDSP binding screen.
Dopamine active transporter (DAT), sequence (Q01959 whole entry, species assumed): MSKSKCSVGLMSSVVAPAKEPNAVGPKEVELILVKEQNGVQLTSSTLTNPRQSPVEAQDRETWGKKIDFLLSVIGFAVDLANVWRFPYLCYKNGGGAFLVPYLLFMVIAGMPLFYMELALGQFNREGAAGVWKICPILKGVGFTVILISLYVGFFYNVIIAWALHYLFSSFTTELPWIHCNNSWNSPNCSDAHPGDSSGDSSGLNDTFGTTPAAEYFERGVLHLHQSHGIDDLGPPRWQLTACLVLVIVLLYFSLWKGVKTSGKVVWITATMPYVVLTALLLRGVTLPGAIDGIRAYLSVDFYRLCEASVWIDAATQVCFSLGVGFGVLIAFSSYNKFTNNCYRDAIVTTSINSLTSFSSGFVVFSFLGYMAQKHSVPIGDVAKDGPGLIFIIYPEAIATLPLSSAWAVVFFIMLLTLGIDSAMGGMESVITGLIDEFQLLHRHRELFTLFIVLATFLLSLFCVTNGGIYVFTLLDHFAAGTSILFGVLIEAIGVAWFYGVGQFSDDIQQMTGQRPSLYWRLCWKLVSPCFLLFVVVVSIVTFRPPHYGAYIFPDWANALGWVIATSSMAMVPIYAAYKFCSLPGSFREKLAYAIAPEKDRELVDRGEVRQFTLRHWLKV

Adrenergic beta3, sequence (P13945 whole entry): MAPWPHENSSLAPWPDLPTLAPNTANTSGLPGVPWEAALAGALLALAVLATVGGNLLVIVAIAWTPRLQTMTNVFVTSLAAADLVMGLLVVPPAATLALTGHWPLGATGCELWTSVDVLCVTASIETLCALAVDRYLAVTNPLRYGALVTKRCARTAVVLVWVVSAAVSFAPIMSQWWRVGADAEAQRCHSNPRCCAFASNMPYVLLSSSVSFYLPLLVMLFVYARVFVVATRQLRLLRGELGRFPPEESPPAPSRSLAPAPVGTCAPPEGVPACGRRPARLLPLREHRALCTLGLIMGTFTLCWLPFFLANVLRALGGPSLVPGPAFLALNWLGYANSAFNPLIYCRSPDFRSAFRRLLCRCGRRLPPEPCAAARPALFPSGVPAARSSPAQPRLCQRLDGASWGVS
Dopamine D2, sequence (P14416 whole entry): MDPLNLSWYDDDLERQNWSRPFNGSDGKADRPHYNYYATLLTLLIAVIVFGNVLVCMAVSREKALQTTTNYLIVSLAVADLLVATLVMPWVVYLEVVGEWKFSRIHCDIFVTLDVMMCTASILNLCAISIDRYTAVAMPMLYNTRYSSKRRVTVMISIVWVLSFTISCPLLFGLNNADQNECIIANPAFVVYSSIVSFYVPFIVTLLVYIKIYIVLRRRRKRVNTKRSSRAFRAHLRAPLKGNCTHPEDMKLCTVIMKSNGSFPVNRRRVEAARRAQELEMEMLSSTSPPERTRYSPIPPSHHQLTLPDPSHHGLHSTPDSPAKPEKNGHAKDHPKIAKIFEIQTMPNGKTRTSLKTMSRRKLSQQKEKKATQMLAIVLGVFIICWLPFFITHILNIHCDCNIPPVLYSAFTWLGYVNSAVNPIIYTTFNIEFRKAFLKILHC
human D3 receptors, sequence (P35462 whole entry): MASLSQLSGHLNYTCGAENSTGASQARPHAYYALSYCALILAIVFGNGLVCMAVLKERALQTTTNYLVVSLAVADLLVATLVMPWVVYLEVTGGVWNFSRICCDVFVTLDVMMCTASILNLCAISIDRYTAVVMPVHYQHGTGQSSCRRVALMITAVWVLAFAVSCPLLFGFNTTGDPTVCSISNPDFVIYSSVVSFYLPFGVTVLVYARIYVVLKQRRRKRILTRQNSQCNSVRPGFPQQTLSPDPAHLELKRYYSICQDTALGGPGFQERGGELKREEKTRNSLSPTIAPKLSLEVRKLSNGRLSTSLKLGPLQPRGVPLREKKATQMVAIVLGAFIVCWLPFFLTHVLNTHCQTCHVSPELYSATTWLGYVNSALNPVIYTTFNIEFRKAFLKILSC
Serotonin 5-HT6, sequence (P50406 whole entry): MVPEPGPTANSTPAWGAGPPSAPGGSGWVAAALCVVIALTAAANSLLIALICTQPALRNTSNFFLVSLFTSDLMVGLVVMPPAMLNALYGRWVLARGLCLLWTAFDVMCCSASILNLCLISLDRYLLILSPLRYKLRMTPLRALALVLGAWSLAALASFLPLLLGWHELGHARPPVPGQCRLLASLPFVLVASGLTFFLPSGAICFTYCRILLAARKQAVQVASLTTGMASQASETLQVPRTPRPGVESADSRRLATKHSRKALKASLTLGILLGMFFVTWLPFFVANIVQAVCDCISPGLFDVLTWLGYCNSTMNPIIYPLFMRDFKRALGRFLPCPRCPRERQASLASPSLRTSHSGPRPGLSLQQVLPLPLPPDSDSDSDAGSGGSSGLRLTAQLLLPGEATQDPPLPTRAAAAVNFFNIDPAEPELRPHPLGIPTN
Histamine H1, sequence (P35367 whole entry): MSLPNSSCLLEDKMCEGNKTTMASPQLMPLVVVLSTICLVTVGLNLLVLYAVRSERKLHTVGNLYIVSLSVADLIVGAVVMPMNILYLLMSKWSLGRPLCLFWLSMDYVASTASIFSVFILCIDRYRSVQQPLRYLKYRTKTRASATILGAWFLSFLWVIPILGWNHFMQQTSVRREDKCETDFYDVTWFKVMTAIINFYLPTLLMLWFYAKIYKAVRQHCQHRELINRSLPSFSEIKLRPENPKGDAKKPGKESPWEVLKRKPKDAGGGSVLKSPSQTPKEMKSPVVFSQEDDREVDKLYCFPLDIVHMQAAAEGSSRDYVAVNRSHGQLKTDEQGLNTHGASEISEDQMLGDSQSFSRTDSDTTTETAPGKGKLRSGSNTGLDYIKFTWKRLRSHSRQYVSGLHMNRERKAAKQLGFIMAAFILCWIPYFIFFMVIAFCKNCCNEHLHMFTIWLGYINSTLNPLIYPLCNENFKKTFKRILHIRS

For orientation: Ki means a measure of affinity in units of concentration, obtained from inhibition or displacement. The inhibition is the percentage by which the read-out fell short of the control. The term IC50 denotes the concentration that inhibits the measured activity by half. As for `CCN(CCCNC(=O)c1ccc(-c2ccsc2)cc1)CCNC(=O)c1cc(Br)cc(OC)c1OC` [21g, 5-Bromo-N-(2-(ethyl(3-(4-(thiophen-3-yl)benzamido)propyl)amino)ethyl)-2,3-dimethoxybenzamide], on GABAA, the “Ki (nM) or % inhibition at 10 µM: GABAA” value is recorded as “N/A (N/A; not active means less than 50% inhibition that was obtained in primary binding assay at 10 µM of the compound)”. In addition, the inhibitory constant (Ki) on Histamine H1 was 102 nM; on Muscarinic M4 it was 1090 nM; on Adrenergic alpha1A, 2110 nM; on Serotonin 5-HT6, 363 nM; on Adrenergic beta3, 2960 nM; at Dopamine D2, 170 nM. Further, the Ki in assay [1] was found to be 100 nM. In addition, the inhibition at 10 µM at Muscarinic M5 was below 50%. Moreover, the Emax on human D3 receptors worked out at 50.1 ± 20.9%. For the same compound, on human D3 receptors, the IC50 came out at 36.8 ± 35.7 nM. On BZP Rat Brain Site, the “Ki (nM) or % inhibition at 10 µM: BZP Rat Brain Site” value was “N/A (N/A; not active means less than 50% inhibition that was obtained in primary binding assay at 10 µM of the compound)”.

For `CCN(CCCNC(=O)c1ccsc1)CCNC(=O)c1cc(Br)cc(OC)c1OC` [21i, N-(3-((2-(5-Bromo-2,3-dimethoxybenzamido)ethyl)(ethyl)amino)propyl)thiophen-e-3-carboxamide], on GABAA, the “Ki (nM) or % inhibition at 10 µM: GABAA” value is “N/A (N/A; not active means less than 50% inhibition that was obtained in primary binding assay at 10 µM of the compound)”. Also, the Ki at Histamine H1 was 84 nM; at Serotonin 5-HT6 it was 2160 nM; at Adrenergic beta3 it was above 10000 nM; at Dopamine D2, 40 nM; in assay [1], 289 nM. Moreover, the inhibition at 10 µM on Muscarinic M4, at Adrenergic alpha1A and on Muscarinic M5 was below 50% in each case. Besides, the Emax at human D3 receptors was determined as 99.6 ± 20.7%. Besides, on human D3 receptors, the IC50 stood at 2.7 ± 0.2 nM. In addition, the “Ki (nM) or % inhibition at 10 µM: BZP Rat Brain Site” value at BZP Rat Brain Site is listed as “N/A (N/A; not active means less than 50% inhibition that was obtained in primary binding assay at 10 µM of the compound)”.

`CCN(CCCNC(=O)c1cc2ccccc2n1C)CCNC(=O)c1cc(Br)cc(OC)c1OC` [21j, N-(3-((2-(5-Bromo-2,3-dimethoxybenzamido)ethyl)(ethyl)amino)propyl)-1-methyl-1H-indole-2-carboxamide]: the “Ki (nM) or % inhibition at 10 µM: GABAA” value on GABAA is reported as “N/A (N/A; not active means less than 50% inhibition that was obtained in primary binding assay at 10 µM of the compound)”. Moreover, the Ki at Histamine H1 was found to be 1470 nM; at Serotonin 5-HT6 it was 1310 nM; at Adrenergic beta3 it was 4360 nM; at Dopamine D2, 76 nM; in assay [1], 390 nM. Moreover, the inhibition at 10 µM at Muscarinic M4, at Adrenergic alpha1A and on Muscarinic M5 was below 50% throughout. Also, the Emax on human D3 receptors is 81.5 ± 10.1%. For the same compound, the IC50 at human D3 receptors was determined as 4.8 ± 0.8 nM. The “Ki (nM) or % inhibition at 10 µM: BZP Rat Brain Site” value on BZP Rat Brain Site was “N/A (N/A; not active means less than 50% inhibition that was obtained in primary binding assay at 10 µM of the compound)”.
